The values that follow are results of earlier work, collected in patent publication US20060099208A1, “Method of potentiating the therapeutic action of monoclonal and polyclonal antibodies” (priority 2004, published 2006).

“Also recorded” adds a separate entry of the source. Read-outs that look alike come from different tables or passages of the source.

The test system of data set [1] is tumor cells. As to conditions: in-vitro; for killing of tumor cells: tumor cells and normal cells from American Type Culture Collection.
For data set [2], the system named is tumor cells. The note with it: mixed culture, normal and tumor cells grown together.
A further data set relates to skin papilloma. As to conditions: mice; pure fatty acid or fatty acid rich oils.
Another data set relates to hepatoma. As to conditions: rats; pure fatty acid or fatty acid rich oils.
The test system of another data set is ascitic tumor cells. The note with it: experimental animals; pure fatty acid or fatty acid rich oils.
In data set [3] the test system is tumor cells. As to conditions: PUFA combined with anti-cancer drug.

With `CCCCC/C=C\C/C=C\C/C=C\C/C=C\CCCC(=O)O` [AA, arachidonic acid], in the data set with tumor cells [1], the tumor cell proliferation entry is reported as “decrease tumor cell proliferation” and the “killing of tumor cells” value is recorded as “only tumor cells were killed; also recorded: selectively kill the tumor cells”. The selective tumoricidal action result with tumor cells [2] is recorded as “effective to some extent”. Also, the “growth of skin papilloma” value in the data set on skin papilloma is “inhibit the growth”. The “formation and growth of hepatoma” value in the data set on hepatoma is listed as “inhibit”. For the same compound, the “growth of ascitic tumor cells in the peritoneum” value (“growth of ascitic tumor cells” for short) in the data set on ascitic tumor cells is “inhibit”. In the data set with normal cells (in-vitro), the “survival of normal cells” value is listed as “without having any significant action”. The “cytotoxic action of anti-cancer drugs doxorubicin, vincristine and cis-platinum” value (from here on “cytotoxic action”) in the data set with tumor cells [3] was “can be augmented”.
For `CCCCC/C=C\C/C=C\C/C=C\CCCCCCC(=O)O` [DGLA, dihomo-GLA], in the data set on tumor cells [1], the tumor cell proliferation result was “decrease tumor cell proliferation” and the “killing of tumor cells” value was “only tumor cells were killed; also recorded: selectively kill the tumor cells”. For the same compound, the “growth of skin papilloma” value with skin papilloma is “inhibit the growth”. Moreover, the “formation and growth of hepatoma” value in the data set on hepatoma is “inhibit”. Further, in the data set on ascitic tumor cells, the “growth of ascitic tumor cells” value is recorded as “inhibit”. In addition, the “survival of normal cells” value in the data set on normal cells was “without having any significant action”.
Regarding `CC/C=C\C/C=C\C/C=C\C/C=C\C/C=C\C/C=C\CCC(=O)O` [DHA, docosahexaenoic acid], in the data set on normal cells (in-vitro), the “survival of normal cells” value is listed as “without having any significant action”. Moreover, in the data set on tumor cells [3], the “cytotoxic action” value is given as “can be augmented”.
Regarding `CC/C=C\C/C=C\C/C=C\C/C=C\C/C=C\CCCC(=O)O` [EPA, eicosapentaenoic acid], the “survival of normal cells” value in the data set on normal cells (in-vitro) is “without having any significant action”. For the same compound, the “cytotoxic action” value in the data set with tumor cells [3] is reported as “can be augmented”.
For `CCCCC/C=C\C/C=C\C/C=C\CCCCC(=O)O` [GLA, gamma-linolenic acid], in the data set on tumor cells [1], the tumor cell proliferation result is “decrease tumor cell proliferation” and the “killing of tumor cells” value is “only tumor cells were killed; also recorded: selectively kill the tumor cells”. For the same compound, the “formation and growth of hepatoma” value in the data set on hepatoma is recorded as “inhibit”. Also, the “growth of ascitic tumor cells” value with ascitic tumor cells is “inhibit”. The “survival of normal cells” value with normal cells (in-vitro) is given as “without having any significant action”. Also, the “cytotoxic action” value in the data set on tumor cells [3] is “can be augmented”.
Consider “Avastin: humanized monoclonal antibody to VEGF developed by Genentech”, for which the side effects result in the data set with colon cancer (human, in vivo) is recorded as “many side effects”. The “extension of colon cancer patients' lives” value with colon cancer (in combination with chemotherapy, trial of 900 patients) is 5 months.
